Measurements: patent publication US20060148858A1, “1, 2-Azole derivatives with hypoglycemic and hypolipidemic activity” (priority 2002, published 2006)
Like-named read-outs stand apart in the source and are kept apart here. Each block holds one compound with its values, some of them ahead of it.

Key:
[1] = system: KKAY mice; assay: Hypoglycemic and hypolipidemic actions in mice (Test Example 1); type: in vivo; conditions: Mus musculus, po, 96 h, 0.005% in powdery diet, four days, non-treated group taken as 100%
Description: Test compounds were mixed in a powdery diet (CE-2, Japan Clea) at the concentration of 0.005%, and freely given to KKAY mice (9 to 12 weeks old, 5 mice in a group), a model of obese and non-insulin dependent diabetes (type 2 diabetes), for four days. During this period, water was given freely. Blood was sampled from orbital venous plexus, and glucose and triglyceride levels in plasma separated from blood were determined enzymatically using L type Wako Glu2 (Wako Pure Chemical Industries, Ltd.) or L type Wako TG·H (Wako Pure Chemical Industries, Ltd.), respectively.
In the table, “hypoglycemic action (%)” means the rate of decrease (%) in the blood glucose level of the treated group when the blood glucose level of the non-treated group is taken as 100%. In addition, the “hypolipidemic action (%)” means the rate of decrease (%) in the blood triglyceride level of the treated group when the blood triglyceride level of the non-treated group is taken as 100%.

[2] = target: T1, PPARγ-RXRα heterodimer (Homo sapiens, UniProt P37231); assay: PPARγ-RXRα heterodimer ligand activity, luciferase reporter in PPARγ:RXRα:4ERPP/CHO-K1 cells (Test Example 3); type: cell-based; conditions: 18-48 hours, concentration for 50% of the maximum fold induction
T1 construct: expressed in transfected cells; host or cells: CHO-K1
T1 sequence (P37231 1-477 isoform P37231-2): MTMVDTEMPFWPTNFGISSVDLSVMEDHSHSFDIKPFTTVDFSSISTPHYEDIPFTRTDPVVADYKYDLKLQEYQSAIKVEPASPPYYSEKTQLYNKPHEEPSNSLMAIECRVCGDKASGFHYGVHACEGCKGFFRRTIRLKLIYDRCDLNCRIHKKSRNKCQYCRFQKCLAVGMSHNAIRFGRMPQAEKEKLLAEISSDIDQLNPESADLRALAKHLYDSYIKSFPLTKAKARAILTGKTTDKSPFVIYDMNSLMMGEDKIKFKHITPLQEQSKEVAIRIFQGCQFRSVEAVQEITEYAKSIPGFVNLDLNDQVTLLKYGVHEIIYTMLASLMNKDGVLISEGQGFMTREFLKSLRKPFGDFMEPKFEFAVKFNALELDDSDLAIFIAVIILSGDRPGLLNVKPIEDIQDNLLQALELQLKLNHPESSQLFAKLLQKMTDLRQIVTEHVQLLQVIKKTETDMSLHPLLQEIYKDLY
T1 sequence (P19793 1-462 partner): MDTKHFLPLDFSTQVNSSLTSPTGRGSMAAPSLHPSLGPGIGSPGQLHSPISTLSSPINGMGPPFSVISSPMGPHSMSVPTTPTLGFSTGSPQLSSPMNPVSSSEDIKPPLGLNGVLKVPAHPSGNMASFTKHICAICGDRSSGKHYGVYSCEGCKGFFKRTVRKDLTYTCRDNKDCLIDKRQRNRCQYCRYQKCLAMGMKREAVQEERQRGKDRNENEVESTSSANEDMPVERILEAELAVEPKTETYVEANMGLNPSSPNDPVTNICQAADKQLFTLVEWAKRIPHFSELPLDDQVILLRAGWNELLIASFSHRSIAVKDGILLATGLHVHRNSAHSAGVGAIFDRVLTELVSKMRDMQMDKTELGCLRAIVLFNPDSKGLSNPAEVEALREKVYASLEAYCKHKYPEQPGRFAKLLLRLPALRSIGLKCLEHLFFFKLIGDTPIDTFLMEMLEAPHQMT
Description: A PPARγ: RXRα: 4ERPP/CHO-K1 cells obtained in Reference Example 8a described later were cultured in HAM F12 medium (produced by Life Technologies, Inc., USA) containing 10% Fetal bovine serum (produced by Life Technologies, Inc., USA) and then inoculated to a 96-well white plate (produced by Corning Costar Corporation, USA) at the density of 2×10^4 cells/well, and cultured in a CO2 gas incubator at 37° C. overnight.
After removing the medium from 96 well white plate, 80 μl of HAM F12 medium containing 0.1% fatty acid-free bovine serum albumin (BSA) and 20 μl of test compound were added, which was cultured in a CO2 gas incubator at 37° C. for 18-48 hours. After removing the medium, 40 μl of PIKKAGENE 7.5 (produced by Wako Pure Chemical Industries, Ltd.) diluted twice with HBSS (HANKS' BALANCED SALT SOLUTION)(produced by BIO WHITTAKER Inc., USA), was added. After stirring, the luciferase activity was determined using 1420 ARVO Multilabel Counter (produced by PerkinElmer Inc., USA).
A fold induction was calculated based on the luciferase activity of each test compound by taking the luciferase activity in the non-treatment group as 1. The values of the test compound concentration and the fold induction were analyzed using PRISM (produced by GraphPad Software Inc. USA) to calculate the EC50 values, the effective concentration of a test compound for 50% of the maximum fold induction.
After a CHO-K1 cell cultured in a 150 cm^2 cell culture flask (750 ml)(produced by Corning Costar Corporation, USA) containing HAM F12 medium (produced by Life Technologies, Inc., USA) supplemented with 10% Fetal Bovine Serum (produced by Life Technologies, Inc., USA) was scraped by treating with 0.5 g/L trypsin-0.2 g/L EDTA (ethylenediaminetetraacetic acid) (produced by Life Technologies, Inc., USA), the cell was washed with PBS (phosphate-buffered saline) (produced by Life Technologies, Inc., USA), centrifuged (1000 rpm, 5 minutes), and then suspended in PBS. Subsequently, a DNA was introduced into the cell under the condition shown below using GENE PULSER (produced by Bio-Rad Laboratories, USA).
Namely, to a cuvette having a 0.4 cm gap, added were 8×10^6 cells and 10 μg of plasmid pVgRXR2-hPPARγ obtained in Reference Example 7a and 10 μg of reporter plasmid pGL3-4ERPP-TK neo obtained in Reference Example 5a, which was subjected to electroporation at the voltage of 0.25 kV under the capacitance of 960 μF. Subsequently, the cell was transferred into a HAM F12 medium containing 10% Fetal Bovine Serum and cultured for 24 hours and then the cell was scraped again and centrifuged, and then suspended in HAM F12 medium containing 10% Fetal Bovine Serum supplemented with 500 μg/ml of GENETICIN (produced by Life Technologies, Inc., USA) and 250 μg/ml of ZEOCIN (produced by Invitrogen, USA). The obtained suspension was diluted to the density of 10^4 cells/ml and inoculated to a 96-well plate (produced by Corning Costar Corporation, USA), which was cultured in a CO2 gas incubator at 37° C., whereby obtaining a GENETICIN- and ZEOCIN-resistant transformant.
Subsequently, after the transformant cell line thus obtained was cultured in a 24-well plate (produced by Corning Costar Corporation, USA), selected was a cell line in which the luciferase was expressed and induced, i.e., PPARγ:RXRα:4ERPP/CHO-K1 cell by addition of 10 μM of pioglitazone hydrochloride.

[3] = rate of decrease in blood glucose level, read-out: Hypoglycemic action (%)
[4] = rate of decrease in blood triglyceride level, read-out: Hypolipidemic action (%)

SMILES: CCCCc1nn(-c2ccc(C(F)(F)F)cn2)cc1CCCOc1c(CC(=O)O)cccc1OC [Example 197, [2-(3-{3-butyl-1-[5-(trifluoromethyl)-2-pyridyl]-1H-pyrazol-4-yl}propoxy)-3-methoxyphenyl]acetic acid]
melting point: 121 to 122 °C | inhibition in vivo at 0.005 % in diet [1, 3]: 45% | inhibition in vivo at 0.005 % in diet [1, 4]: 65% | EC50 [2]: 22 nM

SMILES: COc1cccc(CC(=O)O)c1OCCCc1cn(-c2ccc(Br)cn2)nc1C(C)C [Example 218, (2-{3-[1-(5-bromo-2-pyridyl)-3-isopropyl-1H-pyrazol-4-yl]propoxy}-3-methoxyphenyl)acetic acid]
melting point: 152 to 153 °C | inhibition in vivo at 0.005 % in diet [1, 3]: 34% | inhibition in vivo at 0.005 % in diet [1, 4]: 43% | EC50 [2]: 51 nM

SMILES: CC(C)c1nn(-c2ccc(C(F)(F)F)cn2)cc1CCCOc1c(Br)cccc1CC(=O)O [Example 235, [3-bromo-2-(3-{3-isopropyl-1-[5-(trifluoromethyl)-2-pyridinyl]-1H-pyrazol-4-yl}propoxy)phenyl]acetic acid]
melting point: 146 to 147 °C | inhibition in vivo at 0.005 % in diet [1, 3]: 43% | inhibition in vivo at 0.005 % in diet [1, 4]: 64% | EC50 [2]: 26 nM

SMILES: COc1cccc(CC(=O)O)c1OCCCc1cn(-c2ccc(F)cn2)nc1C(C)C [Example 273, (2-{3-[1-(5-fluoro-2-pyridyl)-3-isopropyl-1H-pyrazol-4-yl]propoxy}-3-methoxyphenyl)acetic acid]
melting point: 125 to 126 °C | EC50 [2]: 90 nM

SMILES: COc1ccc(-n2cc(CCCOc3c(CC(=O)O)cccc3OC)c(C(C)C)n2)nn1 [Example 277, (3-methoxy-2-{3-[1-(6-methoxypyridazin-3-yl)-3-isopropyl-1H-pyrazol-4-yl]propoxy}phenyl)acetic acid]
melting point: 124 to 125 °C | EC50 [2]: 36 nM

SMILES: COc1cccc(CC(=O)O)c1OCCCc1cn(-c2ccc(C(F)(F)F)cn2)nc1C1CCCCC1 [Example 307, [2-(3-{3-cyclohexyl-1-[5-(trifluoromethyl)-2-pyridinyl]-1H-pyrazol-4-yl}propoxy)-3-methoxyphenyl]acetic acid]
melting point: 140 to 141 °C | EC50 [2]: 23 nM

SMILES: CCCCc1nn(-c2ccc(C(F)(F)F)cn2)cc1CCCOc1nn(CC)cc1CC(=O)O [Example 334, [3-(3-{3-butyl-1-[5-(trifluoromethyl)-2-pyridinyl]-1H-pyrazol-4-yl}propoxy)-1-ethyl-1H-pyrazol-4-yl]acetic acid]
melting point: 109 to 110 °C | EC50 [2]: 74 nM

Stronger by EC50 [2], values ahead:

melting point: 146 to 147 °C | EC50 [2]: 21 nM
SMILES: CCCc1nn(-c2ccc(C(F)(F)F)cn2)cc1CCCOc1c(CC)cccc1CC(=O)O [Example 229, [3-ethyl-2-(3-{3-propyl-1-[5-(trifluoromethyl)-2-pyridinyl]-1H-pyrazol-4-yl}propoxy)phenyl]acetic acid]
inhibition in vivo at 0.005 % in diet [1, 3]: 41% | inhibition in vivo at 0.005 % in diet [1, 4]: 49%

melting point: 65 to 66 °C | EC50 [2]: 20 nM
SMILES: CCC(CC)c1nn(-c2ccc(C(F)(F)F)cn2)cc1CCCOc1ccccc1CC(=O)O [Example 215, [2-(3-{3-(1-ethylpropyl)-1-[5-(trifluoromethyl)-2-pyridyl]-1H-pyrazol-4-yl}propoxy)phenyl]acetic acid]
inhibition in vivo at 0.005 % in diet [1, 3]: 50% | inhibition in vivo at 0.005 % in diet [1, 4]: 45%

melting point: 102 to 103 °C | EC50 [2]: 18 nM
SMILES: CCC(CC)c1nn(-c2ccc(C(F)(F)F)cn2)cc1CCCOc1c(F)cccc1CC(=O)O [Example 214, [2-(3-{3-(1-ethylpropyl)-1-[5-(trifluoromethyl)-2-pyridyl]-1H-pyrazol-4-yl}propoxy)-3-fluorophenyl]acetic acid]
inhibition in vivo at 0.005 % in diet [1, 3]: 44% | inhibition in vivo at 0.005 % in diet [1, 4]: 52%

melting point: 117 to 118 °C | EC50 [2]: 18 nM
SMILES: CCC(C)c1nn(-c2ccc(C(F)(F)F)cn2)cc1CCCOc1c(CC(=O)O)cccc1OC (stereo not shown) [Example 216, [3-methoxy-2-(3-{3-(1-methylpropyl)-1-[5-(trifluoromethyl)-2-pyridyl]-1H-pyrazol-4-yl}propoxy)phenyl]acetic acid]
inhibition in vivo at 0.005 % in diet [1, 3]: 46% | inhibition in vivo at 0.005 % in diet [1, 4]: 61%

melting point: 156 to 157 °C | EC50 [2]: 17 nM
SMILES: CCOc1cccc(CC(=O)O)c1OCCCc1cn(-c2ccc(C(F)(F)F)cn2)nc1C1CCCCC1 [Example 306, [2-(3-{3-cyclohexyl-1-[5-(trifluoromethyl)-2-pyridinyl]-1H-pyrazol-4-yl}propoxy)-3-ethoxyphenyl]acetic acid]

melting point: 83 to 84 °C | EC50 [2]: 12 nM
SMILES: CCOc1cccc(CC(=O)O)c1OCCCc1cn(-c2ccc(C(F)(F)F)cn2)nc1C(CC)CC [Example 221, [3-ethoxy-2-(3-{3-(1-ethylpropyl)-1-[5-(trifluoromethyl)-2-pyridyl]-1H-pyrazol-4-yl}propoxy)phenyl]acetic acid]
inhibition in vivo at 0.005 % in diet [1, 3]: 46% | inhibition in vivo at 0.005 % in diet [1, 4]: 21%

melting point: 107 to 108 °C | EC50 [2]: 9.6 nM
SMILES: CCCC(C)c1nn(-c2ccc(C(F)(F)F)cn2)cc1CCCOc1c(CC(=O)O)cccc1OC (stereo not shown) [Example 220, [3-methoxy-2-(3-{3-(1-methylbutyl)-1-[5-(trifluoromethyl)-2-pyridyl]-1H-pyrazol-4-yl}propoxy)phenyl]acetic acid]
inhibition in vivo at 0.005 % in diet [1, 3]: 44% | inhibition in vivo at 0.005 % in diet [1, 4]: 50%
